{
  "source": "patent US20030118649A1",
  "about": "“Drug delivery devices and methods” (priority 2001, published 2003)",
  "key": {"[1]": {"test": "Fluorescence imaging of doxorubicin distribution in rabbit livers after millirod implantation", "settings": "in vivo", "procedure": "In accordance with the present invention, we developed a fluorescence imaging method to analyze doxorubicin distribution in rabbit liver tissues. First, we determined the calibration curve to correlate fluorescence intensity with doxorubicin concentration in liver tissues. Second, we estimated the sensitivity limit (0.6 μg/g of liver tissue) for doxorubicin detection by this method. This value is well below the cytotoxic concentrations of doxorubicin to VX-2 cells (˜6.4 μg/g). (Ridge, J. A., Collin, C., Bading, J. R., Hancock, C., Conti, P. S., Daly, J. M. and Raaf, J. H. (1988) Cancer Res 48(16), 4584-7. Third, we used this method to quantify the dynamics of drug distribution in ablated and non-ablated rabbit livers over time. The detailed experimental procedure of the fluorescence imaging method is described below.\nFIG. 14 compares the 2D doxorubicin distribution profiles between non-ablated and thermoablated liver tissues. In this set of experiments, a monolithic millirod with burst release kinetics (millirod (a) in FIG. 2) was implanted in either non-ablated or thermoablated livers. […] White dashed lines in the figures represent the ablated-normal tissue boundary, which was obtained by comparing the fluorescence image with an optical image of histology slides where this boundary is well-defined (see next section)."}, "[2]": {"test": "Structural integrity of doxorubicin after millirod fabrication (NMR)", "format": "physicochemical", "settings": "compression-heat molding, 90° C., 2 hours", "quoted_text": "These devices are prepared as a monolithic system using a compression-heat-molding procedure that has been developed. (Qian, F., Szymanski, A. and Gao, J. (2001) J. Biomed. Mater. Res. 55, 512-522.) Briefly, doxorubicin solution (2 mg/mL, also containing 0.9% NaCl) from Bedford Laboratories is first dialyzed in distilled water to remove the NaCl. […] The well-mixed particles are placed in a Teflon tube and molded into a polymer millirod at a compression pressure of 4.6×10^6 Pa and a fabrication temperature at 90° C. for 2 hours.\nDetermination of the structural integrity of released doxorubicin. Released doxorubicin in PBS is desalted by gel filtration column chromatography (G-10 column, Pharmacia). Samples are lyophilized and characterized by ^1H and ^13C nuclear magnetic resonance (NMR) and mass spectrometry to examine their structural integrity. In NMR analysis, lyophilized agents are dissolved in deuterated methanol and spectrum will be obtained on a 300 MHz ^1H NMR instrument (Bruker). The chemical shifts of the released agents are compared to the pure compound to detect possible structural decomposition."}, "[3]": {"tested_on": "VX-2 cells", "settings": "Ridge et al. 1988; cited from earlier work"}},
  "data": [
    {"smiles": "COc1cccc2c1C(=O)c1c(O)c3c(c(O)c1C2=O)C[C@@](O)(C(=O)CO)C[C@@H]3O[C@H]1C[C@H](N)[C@H](O)[C@H](C)O1", "note": "[doxorubicin]", "values": [
      {"measurement": "concentration at 24 h", "setting": "[1]", "value": 50000, "unit": "ng/g"},
      {"measurement": "structure of doxorubicin after fabrication", "setting": "[2]", "value": "remained intact"},
      {"measurement": "cytotoxic concentration of doxorubicin", "setting": "[3]", "value": "~6.4", "unit": "µg/g"}
    ]}
  ]
}
